In patent publication US20110275798A1, “Method for Determination of Sirolimus Stability and Process for Preparing Its Stable Form” (priority 2009, published 2011):

Assay: Stability (degradation) of sirolimus solid forms
Type: physicochemical

stability (degradation) (amorphous form): degrades at a fast rate
stability (degradation) (crystalline form): substantially stable
Structure (SMILES): CO[C@H]1C[C@@H]2CC[C@@H](C)[C@@](O)(O2)C(=O)C(=O)N2CCCC[C@H]2C(=O)O[C@H]([C@H](C)C[C@@H]2CC[C@@H](O)[C@H](OC)C2)CC(=O)[C@H](C)/C=C(\C)[C@@H](O)[C@@H](OC)C(=O)[C@H](C)C[C@H](C)/C=C/C=C/C=C/1C [sirolimus]
